From ChEMBL document CHEMBL1201862, “PubChem BioAssay data set” (2004)
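Five compound concentrations were applied to cells in 96-well plates for 48 hours; endpoints were derived by simple linear interpolation of the resulting dose-response curve. The concentration for 50% growth inhibition is given as GI50.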 Active and inactive are the calls of the source. Cut-off read from the data, not from the text of the source: active = GI50 up to about 1.1 µM and inactive = higher.

How the values were obtained:
Assay in all cases: NCI-60 cell line screen, 48 h
SK-MEL-2 = system: SK-MEL-2
UO-31 = system: UO-31
HT-29 = system: HT-29
COLO 205 = system: COLO 205
IGROV-1 = system: IGROV-1
SK-OV-3 = system: SK-OV-3
RXF 393 = system: RXF 393
M14 = system: M14
MDA-N = system: MDA-N
Malme-3M = system: Malme-3M
SNB-75 = system: SNB-75
BT-549 = system: BT-549
A549 = system: A549
PC-3 = system: PC-3
SN12C = system: SN12C
MCF7 = system: MCF7
HOP-92 = system: HOP-92
HL-60 = system: HL-60
SR = system: SR
SF-539 = system: SF-539

Compound	GI50 (SK-MEL-2)	GI50 (UO-31)	GI50 (HT-29)	GI50 (COLO 205)	GI50 (IGROV-1)	GI50 (SK-OV-3)	GI50 (RXF 393)	GI50 (M14)	GI50 (MDA-N)	GI50 (Malme-3M)	GI50 (SNB-75)	GI50 (BT-549)	GI50 (A549)	GI50 (PC-3)	GI50 (SN12C)	GI50 (MCF7)	GI50 (HOP-92)	GI50 (HL-60)	GI50 (SR)	GI50 (SF-539)
CC1OC(O[C@H]2C3C=CO[C@@H](OC4OC(CO)C(O)C(O)C4O)C3[C@@]3(COC(=O)/C=C/c4ccccc4)O[C@@H]23)C(O)C(O)C1O (stereo partly specified)	> 100 µM (inactive)	> 100 µM (inactive)	> 100 µM (inactive)	> 100 µM (inactive)	> 100 µM (inactive)	> 100 µM (inactive)	> 100 µM (inactive)	> 100 µM (inactive)	> 100 µM (inactive)	> 100 µM (inactive)	> 100 µM (inactive)	> 100 µM (inactive)	> 100 µM (inactive)	> 100 µM (inactive)	> 100 µM (inactive)	> 100 µM (inactive)	> 100 µM (inactive)	> 100 µM (inactive)	–	–
O=C(n1[nH]c(=O)n(-c2ccc([N+](=O)[O-])cc2)c1=O)C(Cl)(Cl)Cl	> 75 µM (inactive)	> 75 µM (inactive)	> 75 µM (inactive)	> 75 µM (inactive)	> 75 µM (inactive)	> 75 µM (inactive)	> 75 µM (inactive)	> 75 µM (inactive)	> 75 µM (inactive)	> 75 µM (inactive)	> 75 µM (inactive)	> 75 µM (inactive)	> 75 µM (inactive)	> 75 µM (inactive)	> 75 µM (inactive)	> 75 µM (inactive)	–	> 75 µM (inactive)	> 75 µM (inactive)	–
O=C1C(Cl)=C(Cl)C(Cl)(Cl)C(Cl)C1(Cl)Cl (stereo unspecified)	15.8 µM (inactive)	15.8 µM (inactive)	24.5 µM (inactive)	17.9 µM (inactive)	17 µM (inactive)	26.2 µM (inactive)	20 µM (inactive)	25.6 µM (inactive)	23.7 µM (inactive)	18.8 µM (inactive)	21.5 µM (inactive)	19.7 µM (inactive)	20.9 µM (inactive)	25 µM (inactive)	20 µM (inactive)	22.7 µM (inactive)	16.9 µM (inactive)	18.4 µM (inactive)	–	17.5 µM (inactive)
O=c1c2c(c1=O)C1(SCCCS1)c1cc(Cl)ccc1O2	> 100 µM (inactive)	> 100 µM (inactive)	> 100 µM (inactive)	> 100 µM (inactive)	> 100 µM (inactive)	> 100 µM (inactive)	> 100 µM (inactive)	> 100 µM (inactive)	> 100 µM (inactive)	> 100 µM (inactive)	> 100 µM (inactive)	> 100 µM (inactive)	> 100 µM (inactive)	> 100 µM (inactive)	> 100 µM (inactive)	> 100 µM (inactive)	> 100 µM (inactive)	> 100 µM (inactive)	–	> 100 µM (inactive)
O=C(O)C12C3CCC(CC3)C1(C(=O)O)C1CCC2C1 (stereo unspecified)	> 100 µM (inactive)	> 100 µM (inactive)	> 100 µM (inactive)	> 100 µM (inactive)	> 100 µM (inactive)	> 100 µM (inactive)	> 100 µM (inactive)	> 100 µM (inactive)	> 100 µM (inactive)	> 100 µM (inactive)	> 100 µM (inactive)	> 100 µM (inactive)	> 100 µM (inactive)	> 100 µM (inactive)	> 100 µM (inactive)	> 100 µM (inactive)	–	> 100 µM (inactive)	< 0.01 µM (active)	> 100 µM (inactive)
CC1=NN(C2=NS(=O)(=O)c3ccccc3N2C)C(=O)C1	> 100 µM (inactive)	> 100 µM (inactive)	> 100 µM (inactive)	> 100 µM (inactive)	> 100 µM (inactive)	> 100 µM (inactive)	> 100 µM (inactive)	> 100 µM (inactive)	–	–	–	> 100 µM (inactive)	> 100 µM (inactive)	> 100 µM (inactive)	> 100 µM (inactive)	> 100 µM (inactive)	> 100 µM (inactive)	> 100 µM (inactive)	–	> 100 µM (inactive)
Nc1ccc(OCCCc2c(-c3ccccc3)[nH]c(N)nc2=O)cc1	–	26 µM (inactive)	< 0.01 µM (active)	26 µM (inactive)	31.3 µM (inactive)	21.4 µM (inactive)	63.8 µM (inactive)	32.5 µM (inactive)	31.9 µM (inactive)	26.8 µM (inactive)	66.4 µM (inactive)	22.5 µM (inactive)	–	41.7 µM (inactive)	50.7 µM (inactive)	40.3 µM (inactive)	–	86.9 µM (inactive)	> 100 µM (inactive)	28.1 µM (inactive)
Cc1nn(C2OC(CO)C(O)C(F)C2O)c(=O)[nH]c1=O (stereo unspecified)	> 100 µM (inactive)	> 100 µM (inactive)	> 100 µM (inactive)	> 100 µM (inactive)	–	> 100 µM (inactive)	–	> 100 µM (inactive)	> 100 µM (inactive)	> 100 µM (inactive)	–	> 100 µM (inactive)	> 100 µM (inactive)	> 100 µM (inactive)	> 100 µM (inactive)	> 100 µM (inactive)	> 100 µM (inactive)	> 100 µM (inactive)	–	> 100 µM (inactive)
COc1ccc(/C=C2\CCC(CNc3ccc(OC)cc3)C2=O)cc1 (stereo unspecified)	–	17.9 µM (inactive)	14.3 µM (inactive)	15.7 µM (inactive)	13.9 µM (inactive)	> 100 µM (inactive)	16.2 µM (inactive)	16.1 µM (inactive)	14.1 µM (inactive)	22.6 µM (inactive)	31.1 µM (inactive)	13.7 µM (inactive)	36.4 µM (inactive)	16.8 µM (inactive)	16 µM (inactive)	2.61 µM (inactive)	18.9 µM (inactive)	3.09 µM (inactive)	–	20.4 µM (inactive)
CC(C)(C)CN1[C@@H]2CCCC[C@H]2N(CC(C)(C)C)P1(=O)C(O)/C=C/c1ccccc1 (stereo partly specified)	33.3 µM (inactive)	29.5 µM (inactive)	31.5 µM (inactive)	17.3 µM (inactive)	25.6 µM (inactive)	51.8 µM (inactive)	30.3 µM (inactive)	27.1 µM (inactive)	35.3 µM (inactive)	38.5 µM (inactive)	21.3 µM (inactive)	74.1 µM (inactive)	25.1 µM (inactive)	37.8 µM (inactive)	22.2 µM (inactive)	28.6 µM (inactive)	28.8 µM (inactive)	32 µM (inactive)	–	–
CCCCNC(=S)N/C=C1\C(=O)Nc2ccccc2C1=O	–	> 10 µM (inactive)	> 10 µM (inactive)	> 10 µM (inactive)	> 10 µM (inactive)	–	> 10 µM (inactive)	> 10 µM (inactive)	–	> 10 µM (inactive)	–	> 10 µM (inactive)	> 10 µM (inactive)	> 10 µM (inactive)	> 10 µM (inactive)	> 10 µM (inactive)	> 10 µM (inactive)	> 10 µM (inactive)	> 10 µM (inactive)	> 10 µM (inactive)
Cc1c2c(n3c(nc4ccccc43)c1C#N)N(c1ccc(Cl)cc1)CC2	> 100 µM (inactive)	> 100 µM (inactive)	> 100 µM (inactive)	> 100 µM (inactive)	> 100 µM (inactive)	96.4 µM (inactive)	> 100 µM (inactive)	> 100 µM (inactive)	> 100 µM (inactive)	> 100 µM (inactive)	> 100 µM (inactive)	> 100 µM (inactive)	> 100 µM (inactive)	> 100 µM (inactive)	> 100 µM (inactive)	> 100 µM (inactive)	> 100 µM (inactive)	> 100 µM (inactive)	–	> 100 µM (inactive)
Cc1csc2nc3[nH]ncc3c(=O)n12	> 100 µM (inactive)	81.8 µM (inactive)	> 100 µM (inactive)	> 100 µM (inactive)	> 100 µM (inactive)	> 100 µM (inactive)	–	> 100 µM (inactive)	> 100 µM (inactive)	> 100 µM (inactive)	61 µM (inactive)	> 100 µM (inactive)	> 100 µM (inactive)	> 100 µM (inactive)	> 100 µM (inactive)	> 100 µM (inactive)	–	–	> 100 µM (inactive)	> 100 µM (inactive)
NCCCCN(CCCN)C(=O)OCc1ccccc1	> 100 µM (inactive)	> 100 µM (inactive)	> 100 µM (inactive)	> 100 µM (inactive)	> 100 µM (inactive)	> 100 µM (inactive)	> 100 µM (inactive)	> 100 µM (inactive)	–	–	> 100 µM (inactive)	> 100 µM (inactive)	> 100 µM (inactive)	> 100 µM (inactive)	> 100 µM (inactive)	> 100 µM (inactive)	> 100 µM (inactive)	> 100 µM (inactive)	> 100 µM (inactive)	> 100 µM (inactive)
C=C(C(=O)OC)[C@@H]1C[C@@H](OC(C)=O)C2=C[C@H](C[C@@]3(C)O[C@@H]3C3=CC(C)=C(O3)[C@H]1OC(C)=O)OC2=O [BIPINNATIN I]	31 µM (inactive)	16 µM (inactive)	6.24 µM (inactive)	10.8 µM (inactive)	15.3 µM (inactive)	37.5 µM (inactive)	12 µM (inactive)	14.8 µM (inactive)	19.4 µM (inactive)	13.3 µM (inactive)	26.1 µM (inactive)	12.9 µM (inactive)	40.7 µM (inactive)	25.2 µM (inactive)	22.4 µM (inactive)	8.28 µM (inactive)	–	–	9.38 µM (inactive)	31.4 µM (inactive)
